Measurements taken from the SangsterLogP compilation.

How the values were obtained:
[1] = method code SF-AS, from DOI: 10.1021/jm00234a001, PMID: 1003419
[2] = method code SF-AS, from M. Kuchar, J. Tomkova, V. Rejholec, & O. Roubinek. (1992). Some problems of the chromatographic evaluation of lipophicity. In Kuchar, M. (Ed.) QSAR in Design of Bioactive Compounds (pp. 65-81). Prous …; conditions: pH 3.4
[3] = method code SF-AS, from DOI: 10.1021/bi00730a008, PMID: 4688860
[4] = not given; remark: listed apart in the source
[5] = method code SF-AS, from DOI: 10.1002/ps.2780370107; conditions: pH 0.0
[6] = not given; remark: listed apart in the source
[7] = not given; remark: listed apart in the source
[8] = method code SF-GLC, from DOI: 10.1016/s0021-9673(01)83612-8; conditions: pH 13.0
[9] = method code SF-AS, from DOI: 10.1021/je700381u; conditions: pH 0.0
[10] = not given; remark: listed apart in the source
[11] = method code SF-HPLC, from DOI: 10.1002/jps.2600831027, PMID: 7884677; conditions: pH 2.0
[12] = not given; remark: listed apart in the source
[13] = not given; remark: listed apart in the source
[14] = not given; remark: listed apart in the source
[15] = not given; remark: listed apart in the source
[16] = method code SF-AS, from DOI: 10.1093/chemse/13.4.619; conditions: pH 7.2
[17] = method code SF-HPLC, from DOI: 10.1016/0378-5173(87)90096-2; conditions: pH 8.0
[18] = not given; remark: listed apart in the source
[19] = not given; remark: listed apart in the source
[20] = method code SF-AS, from DOI: 10.1021/jf60177a051
[21] = method code SF-C, from DOI: 10.1038/194178b0
[22] = method code SF-AS, from PMID: 8197227; conditions: pH 7.4
[23] = method code SF-AS, from DOI: 10.1111/j.1476-5381.1975.tb07619.x, PMID: 1182339; conditions: pH 10.0
[24] = method code SF-AS, from DOI: 10.1080/00021369.1974.10861343; conditions: for logD: pH 3.0
[25] = method code SF-AS, from DOI: 10.1016/0378-5173(90)90042-3
[26] = from Pratesi, P.; Villa, L.; Ferri, V.; DeMicheli, C.; Grana, E.; Grieco, C.; Silipo, C.; Vittoria, A. (1979). On the additive-constitutive properties of substituent hydrophobic parameters in a set of …

## OC[C@H]1O[C@@H](Oc2ccc(I)c(O[C@@H]3O[C@H](CO)[C@@H](O)[C@H](O)[C@H]3O)c2I)[C@H](O)[C@@H](O)[C@@H]1O
[1]
  logP: -1.31

## O=C(O)c1ccc2cccccc1-2
pH 3.4
  logD: 2.88

## CC(C)Cc1ccc(CC(=O)O)cc1
[2]
  logD: 3.35

## COc1cccc(NC=O)c1
[3]
  logP: 1.25

## O=C(O)c1ccccc1C(=O)O
[4]
  logP: 0.87

## CCOP(=O)(O)Cc1ccc(-c2ccccc2)cc1
[5]
  logD: 2.37

## CCOP(=O)(O)Cc1ccc(F)cc1
[5]
  logD: 1.25

## NCCCCc1ccccc1
[6]
  logP: 2.25

## COCc1ccc(COC(=O)C2C(C=C(C)C)C2(C)C)cc1 (stereo not given)
[7]
  logP: 4.5

## CN[C@H](C)[C@@H](OC)c1ccccc1 (relative stereo)
[8]
  logD: 1.87

## O=C(O)c1cccc(F)c1Cl
[9]
  logD: 1.74

## O=C(O)c1ccccc1O
[10]
  logP: 1.75

## O=C(O)c1ccc(CCl)cc1
[11]
  logD: 2.12

## CC(=O)Nc1ccccc1Cl
[12]
  logP: 1.35

## Clc1cccc2c1CCNCC2
[13]
  logP: 2.4

## O=C(O)CCCCCCCCCCCOC(=O)Oc1ccccc1
[14]
  logP: 4.26

## OCc1ccc(F)cc1
[12]
  logP: 1.36

## COc1cccc(O)c1
[15]
  logP: 1.52

## c1ccc(Cc2ccncc2)cc1
[16]
  logD: 2.62

## O=C(O)CCCCCCCCCCCCCCCOC(=O)Oc1ccccc1
[14]
  logP: 4.67

## NC(=O)Cc1ccc2cccccc1-2
other
  logP: 2.48

## O=[N+]([O-])c1ccc(Cc2ccncc2)cc1
[16]
  logD: 2.73

## O=C(O)c1cc(F)ccc1Br
[9]
  logD: 2.21

## NC(=O)Cc1ccccn1
[17]
  logD: -0.64

## O=C(c1ccccc1)c1ccncc1
[16]
  logD: 1.9

## COP(=S)(OC)Oc1c(Cl)cc(C)cc1Cl
[18]
  logP: 4.36

## CCOP(=O)(OCC)O/C(=C/Cl)c1ccc(Cl)cc1Cl
[19]
  logP: 3.84

## CC[C@H]1CCC[C@H](O[C@H]2CC[C@H](N(C)C)[C@@H](C)O2)[C@@H](C)C(=O)C2=C[C@@H]3[C@@H](C=C(C)[C@@H]4C[C@@H](O[C@@H]5O[C@@H](C)[C@H](OC)[C@@H](OC)[C@H]5OC)C[C@@H]34)[C@@H]2CC(=O)O1
[4]
  logP: 4.92

## CC1=C(C(=O)O)SCCO1
[20]
  logP: 0.04

## CCCCCCOc1ccc(CC(=O)O)cc1
[2]
  logD: 3.96

## N#Cc1cccc(OCC(=O)O)c1
[21]
  logP: 1.2

## Cc1cccc(C)c1O
[15]
  logP: 2.38

## CC(=O)Nc1c(I)c(C(=O)N[C@H]2C(O)O[C@H](CO)[C@@H](O)[C@@H]2O)c(I)c(N(C)C(C)=O)c1I (stereo not given in full)
[1]
  logP: -1.89

## CCCN1CCc2cccc(Cl)c2CC1
[13]
  logP: 3.5

## O=C(Nc1ccccc1)N(Cc1ccc(Cl)cc1)C1CCCC1
[18]
  logP: 4.7

## CC(=O)c1cccc(OCC(=O)O)c1
[21]
  logP: 1.34

## c1cc2cccc3c4cccc5cccc(c(c1)c23)c54
[10]
  logP: 6.53

## Cc1cccc(OCC(=O)O)c1
[21]
  logP: 1.88

## NC(=O)CCCc1ccccn1
[17]
  logD: 0.06

## O=C(O)COC(=O)Oc1ccccc1
[14]
  logP: 1.72

## C#CCc1ccc(COC(=O)C2C(C=C(C)C)C2(C)C)o1 (stereo not given)
[7]
  logP: 6.67

## CC1=C(C(=O)Nc2ccccc2)SCCO1
[20]
  logP: 1.73

## CCOP(=S)(OCC)Oc1cc(-c2ccccc2)on1
[18]
  logP: 4.58

## NC(=S)NNC(=O)c1ccc2c(c1)OCO2
[22]
  logD: 0.21

## N=C(N)NC(=O)Nc1cccc([N+](=O)[O-])c1
[23]
  logD: 1.28

## O=C(O)COc1cccc(C(F)(F)F)c1
[21]
  logP: 2.52

## O=C(NNc1nccs1)c1ccc2c(c1)OCO2
[22]
  logD: 1.06

## O=CNc1ccc([N+](=O)[O-])cc1
[3]
  logP: 1.43

## CC1=C(C(=O)Nc2ccccc2)S(=O)CCO1 (stereo not given)
[20]
  logP: 0.64

## NC(=O)Cc1cccnc1
[17]
  logD: -0.59

## O=C(O)/C=C/Oc1ccccc1Cl
[24]
  logD: 2.69

## COCc1ccc(C(=O)O)cc1
[11]
  logD: 1.76

## Cc1ccc(NC=O)cc1
[3]
  logP: 1.61

## c1ccc2ccccc2c1
[19]
  logP: 3.43

## COc1ccc(C(O)C(=O)O)cc1 (stereo not given)
[2]
  logD: 0.63

## CCOC(=O)c1cc(=O)[nH]c(=O)[nH]1
[25]
  logP: 0.68

## COCCN1CCc2cccc(Cl)c2CC1
[13]
  logP: 3

## COC(=O)c1cc(=O)[nH]c(=O)[nH]1
[25]
  logP: 0.63

## O=C(O)CCc1ccc(OCc2ccccc2)c(Cl)c1
[2]
  logD: 3.89

## Nc1ccc(F)c(Cl)c1
[19]
  logP: 1.95

## CC1=C(C(=O)Nc2ccccc2-c2ccccc2)SCCO1
[20]
  logP: 2.54

## N#CCCOc1ccccc1
[26]
  logP: 1.61

## CS(=O)(=O)NCCN1CCc2cccc(Cl)c2CC1
[13]
  logP: 2.51

## OCc1ccncc1
[12]
  logP: -0.04

## CCOP(=O)(O)Cc1ccccc1
[5]
  logD: 0.81

## CC(=O)c1ccncc1
[16]
  logD: 0.4

## O=C(O)c1ccc(F)c(Br)c1
[9]
  logD: 3.56

## O=C(O)c1ccc(CO)cc1
[11]
  logD: 0.92

## Oc1ccc(C2CCCCC2)cc1
[26]
  logP: 4.22

## CC(C)CCOC(=O)c1cc(=O)[nH]c(=O)[nH]1
[25]
  logP: 1.48

## COc1ccc(NC=O)cc1
[3]
  logP: 1.03

## CNS(=O)(=O)c1ccccc1
[26]
  logP: 0.92

## O=C1OCc2c(Cl)c(Cl)c(Cl)c(Cl)c21
[18]
  logP: 3.22

## CC1(C)C(/C=C(\Cl)C(F)(F)F)C1C(=O)OC(C#N)c1cccc(Oc2ccccc2)c1 (stereo not given)
[7]
  logP: 6.02

## CCCOC(=O)C=COc1ccccc1
[24]
  logP: 3.72

## Oc1c(I)cc(I)c(O)c1I
[1]
  logP: 1.68

## N=C(N)NC(=O)Nc1ccc(Cl)c(Cl)c1
[23]
  logD: 2.39

## NC(=O)Cc1ccncc1
[17]
  logD: -0.59

## O=C(O)CCCCCCCOC(=O)Oc1ccccc1
[14]
  logP: 3.39

## CCOC(=O)c1ccc2cccccc1-2
other
  logP: 3.83

## c1ccc2c(c1)ccc1c3ccccc3ccc21
[10]
  logP: 6.01

## COc1cccc(N)c1
[15]
  logP: 1.11

## Cc1csc(NNC(=O)c2ccc3c(c2)OCO3)n1
[22]
  logD: 1.41

## Nc1ccccc1[N+](=O)[O-]
[15]
  logP: 1.62

## CC(=O)OC(c1ccc(Cl)c(Cl)c1)C(Cl)(Cl)Cl (stereo not given)
[7]
  logP: 4.92

## Cc1cc(C)cc(O)c1
[19]
  logP: 2.54

## C(=NNc1nccs1)c1ccc2c(c1)OCO2
[22]
  logD: 1.5

## CNc1ccccc1
[12]
  logP: 1.69

## OCCCNc1ccccc1
[6]
  logP: 0.57

## Cc1ccc(CCN)cc1
[6]
  logP: 1.83

## O=C(O)/C=C/Oc1ccccc1
[24]
  logD: 2.27

## O=S(=O)(O)c1ccc2ccccc2c1
[26]
  logP: 1.07

## O=C(O)Cc1ccc(C(=O)O)cc1
[11]
  logD: 1.24

## O=C(O)c1cc(F)ccc1Cl
[9]
  logD: 2.39

## Cc1ccccc1CCN
[6]
  logP: 1.6

## CCOP(=O)(O)Cc1ccc(S(C)(=O)=O)cc1
[5]
  logD: -0.4

## COc1cc(NC(=O)NC(=N)N)ccc1C#N
[23]
  logD: 1.28

## O=[N+]([O-])c1ccc2cccccc1-2
other
  logP: 2.59

## O=C(O)COc1ccc(Cl)cc1Cl
[4]
  logP: 2.71

## CCCCCOC(=O)c1cc(=O)[nH]c(=O)[nH]1
[25]
  logP: 1.62

## CCOC(=O)C=COc1ccccc1
[24]
  logP: 3.18

## COc1ccc(NC(=O)NC(=N)N)cc1
[23]
  logD: 0.56

## c1ccc2c(c1)cc1ccc3cccc4ccc2c1c34
[10]
  logP: 6.57

## CNC(=O)c1c(I)c(NC(C)=O)c(I)c(O[C@@H]2O[C@H](CO)[C@@H](O)[C@H](O)[C@H]2O)c1I
[1]
  logP: -1.49

## O=C(O)c1cccc(Oc2ccccc2)c1
[4]
  logP: 3.6
